Square brackets hold non-standard residues; d marks the D form. Peptide text beside a SMILES is read from it. Cya = N[C@@H](CS(=O)(=O)O)C(=O)O
Key:
[1] = tested on: human retinal Müller cells (MIO-M1); assay: MTT cell viability of human Müller cells (MIO-M1); assay type: cell-based; settings: 24 hours, normalized to untreated control as 100%
Description: Purpose: To determine the effects of risuteganib and anti-VEGF drugs on the cell viability of cultured human retinal Müller cells (MIO-M1).
Methods: The immortalized human retinal Müller cell line (MIO-M1) was obtained from the Department of Cell Biology of the University College, London. Cells were cultured in Dulbecco's Modified Eagle's Medium (DMEM) and plated in 96-well plates for 24 hours before treatment with 0.5×, 1× or 2× concentrations of 1 mg/50 μL risuteganib, or 1× of ranibizumab, bevacizumab or aflibercept. Dosage was based on clinical dose of each compound. The experiments were repeated 3 times with 7-8 replicates each. After 24 hours of drug treatment, MTT NAD(P)H-dependent colorimetric assay was used to assess the number of viable cells present in the cultures. Absorbance ratios were normalized to untreated control as 100%. Statistical analysis was performed in GraphPad Prism software program.

OIR mouse retina = assay: RNA-seq gene expression in OIR mouse retina after intravitreal injection; assay type: in vivo; settings: 10 μg/1 μL single intravitreal injection
Text: Purpose: This study used RNA-seq to identify the genes regulated in the mouse retina following risuteganib intravitreal injection. Analysis of the specific genes regulated by risuteganib enables identification of biological processes and pathways modulated by the oligopeptide. […] Risuteganib causes reduced leukocyte attachment, reduced leukocyte trans-endothelial migration and reduced expression of complement 3 receptor. Methods: OIR mouse pups received 5 days of hyperoxia (75% O2) to obliterate developing retinal vessels. Following their return to room air, retinal neovascularization develops due to an imbalance in oxygen supply and demand. At the time of return to room air, both eyes of OIR pups received either vehicle injection or a single intravitreal injection of risuteganib solution at concentration of 10 μg/1 μL. A separate group of pups raised at room air served as control and received either vehicle or risuteganib solution injection consistent with the OIR mouse group. 5 days after injection, at the height of retinal neovascularization in OIR mice, all mice are sacrificed, retina tissue extracted for RNA isolation and RNA-seq. The generated reads were then aligned to the mouse reference genome/transcriptome and gene expression quantified for differential expression analysis and fold change calculation. The list of regulated genes was then submitted to identify biological processes and pathways that are regulated after risuteganib exposure compared to vehicle control in OIR mice or control mice, and in OIR retina compared to control retina that both received vehicle injections.

[2] = tested on: study eye of subjects with intermediate non-exudative AMD; assay: Lanthony D-15 color vision test (Total Error Score Hue Style) in Dry AMD study; assay type: in vivo, human; set-up: Color vision Total Error Score Hue Style, mean / Color vision Total Error Score Hue Style, median / Color vision Total Error Score Hue Style change, median: scale not given here
Description: Numerous study assessments were conducted at various time points throughout the study. Included among these study assessments were; refractive eye examinations, determinations of BCVA AND low-luminance BCVA, Lanthony D-15 color vision test, measurement of intraocular pressure (IOP), Indirect ophthalmoscopy/dilated fundus examinations and spectral-domain optical coherence tomography (SD-OCT). Also, blood and saliva samples were obtained from each subject for genetic analysis. The above-listed study assessments were performed at the time points indicated in Table 1, below: The results of color vision testing of the study subjects are summarized in Table 5, below.

[3] = Week 12, Group 2 (1 mg IVT day 1 + wk 16)
[4] = Week 32, Group 1 crossover (sham day 1, 1 mg IVT wk 16)
[5] = Week 32, Group 2 (1 mg IVT day 1 + wk 16)

C[C@@H](O)[C@H](NC(=O)[C@H](CS(=O)(=O)O)NC(=O)CNC(=O)[C@H](CCCNC(=N)N)NC(=O)CN)C(=O)N1CCC[C@H]1C(=O)O [risuteganib, Glycyl-L-arginylglycyl-3-sulfo-L-alanyl-L-threonyl-L-proline] (H-GRG[Cya]TP-OH)
Cell viability (MTT) ([1]; 0.5× of 1 mg/50 μL): 111.3±2.189
Cell viability (MTT) ([1]; 1× of 1 mg/50 μL): 113.5±13.5
Cell viability (MTT) ([1]; 2× of 1 mg/50 μL): 100.3±7.8
Number of genes regulated in the OIR retina with statistical significance (OIR mouse retina; 5 days after injection, vs vehicle): around 600 genes
Expression of integrin subunits α5, α6, αM, β1, β2, and β5 (OIR mouse retina; OIR retina, 5 days after injection): down regulated
Number of biological pathways down-regulated (OIR mouse retina; OIR retina, 10 of them up-regulated in OIR retina): 11
Color vision Total Error Score Hue Style, mean [2, 3]: 43.38
Color vision Total Error Score Hue Style, median [2, 3]: 39.67
Color vision Total Error Score Hue Style change, median ([2]; Week 12 change from screening, Group 2 (1 mg IVT day 1 + wk 16)): 2.67
Color vision Total Error Score Hue Style change, mean ([2]; Week 12 change from screening, Group 2 (1 mg IVT day 1 + wk 16), increase = worsening): 2.41
Color vision Total Error Score Hue Style, mean [2, 4]: 48.76
Color vision Total Error Score Hue Style, median [2, 4]: 42.00
Color vision Total Error Score Hue Style, mean [2, 5]: 39.88
Color vision Total Error Score Hue Style, median [2, 5]: 24.09
Color vision Total Error Score Hue Style change, median ([2]; Week 32 change from screening, Group 2 (1 mg IVT day 1 + wk 16)): −3.17
Color vision Total Error Score Hue Style change, median ([2]; Week 32 change, Group 1 crossover (sham day 1, 1 mg IVT wk 16)): 1.34
Decrease (improvement) in color vision total error score ([2]; risuteganib responders at Week 32 (FIG. 3)): 13.03
